For 14 compounds, IC50 results are on record in patent US20250215030A1, “STAT MODULATORS AND USES THEREOF” (Recludix Pharma, Inc., priority 2022, published 2025).

The target in test [1] is T1, Recombinant STAT3 protein (STAT3(G127-I722)) (Homo sapiens, UniProt P40763).
T1 construct: STAT3(G127-I722)
In words: STAT3 Fluorescence Polarization (FP) Assay. The note with it: STAT3(G127-I722) 25 nM, probe 5-FAM-GpYLPQTV-NH2 2 nM, 45-minute incubation. The format is binding. As to the method:
STAT3 Fluorescence Polarization (FP) Assay
An FP assay was developed to determine IC50 values for test substances. Recombinant STAT3 protein (STAT3(G127-I722)) at 25 nM was combined with a fluorescently labeled, phosphotyrosine peptide probe (5-FAM-GpYLPQTV-NH2) at 2 nM in FP buffer (10 mM HEPES pH 7.4, 50 mM NaCl, 1 mM EDTA, 0.05% Tween 20, 2 mM DTT). 50 μL of STAT3-probe mixture was added to serial diluted compounds in black, 96-well plates (Greiner BioOne 655076) to a final concentration of 1% DMSO. Reaction components were mixed, and FP was measured after 45-minute incubation at room temperature using a Tecan Spark multimode plate reader. FP signal (mP) was plotted against the log concentration of the test substances and IC50 values were calculated by nonlinear regression analysis using GraphPad Prism software. For STAT3 FP assay, A=≤100 nM; B=>100-1000 nM; C=>1-10 μM; and D=>10 μM.

In test [2] the target is T2, Recombinant STAT6 protein (STAT6(W123-T658)) (Homo sapiens, UniProt P42226).
T2 construct: STAT6(W123-T658)
T2 sequence (P42226 123-658): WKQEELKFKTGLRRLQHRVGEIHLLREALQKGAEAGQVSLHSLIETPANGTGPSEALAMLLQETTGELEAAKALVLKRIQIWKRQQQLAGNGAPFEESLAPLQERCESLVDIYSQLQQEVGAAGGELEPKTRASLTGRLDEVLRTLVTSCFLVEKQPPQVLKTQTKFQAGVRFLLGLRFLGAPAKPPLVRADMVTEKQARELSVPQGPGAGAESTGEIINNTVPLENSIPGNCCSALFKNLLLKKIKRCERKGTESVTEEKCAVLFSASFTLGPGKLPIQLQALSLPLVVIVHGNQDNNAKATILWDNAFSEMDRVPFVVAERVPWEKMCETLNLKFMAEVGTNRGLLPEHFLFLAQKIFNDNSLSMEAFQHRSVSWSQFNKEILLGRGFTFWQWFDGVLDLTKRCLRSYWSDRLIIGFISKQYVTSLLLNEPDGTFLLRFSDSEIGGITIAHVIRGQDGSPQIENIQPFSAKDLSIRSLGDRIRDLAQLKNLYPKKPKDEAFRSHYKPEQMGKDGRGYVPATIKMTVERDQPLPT
Put plainly: STAT6 Fluorescence Polarization (FP) Assay. The format is binding. The note with it: STAT6(W123-T658) 250 nM, probe 5-FAM-ApYKPFQDLI-NH2 2 nM, 45-minute incubation. As to the method: STAT6 Fluorescence Polarization (FP) Assay
An FP assay was developed to determine IC50 values for test substances. Recombinant STAT6 protein (STAT6(W123-T658)) at 250 nM was combined with a fluorescently labeled, phosphotyrosine peptide probe (5-FAM-ApYKPFQDLI-NH2) at 2 nM in FP buffer (10 mM HEPES pH 7.4, 50 mM NaCl, 1 mM EDTA, 0.05% Tween 20, 2 mM DTT). 50 μL of STAT6-probe mixture was added to serial diluted compounds in black, 96-well plates (Greiner BioOne 655076) to a final concentration of 1% DMSO. Reaction components were mixed, and FP was measured after 45-minute incubation at room temperature using a Tecan Spark multimode plate reader. FP signal (mP) was plotted against the log concentration of the test substances and IC50 values were calculated by nonlinear regression analysis using GraphPad Prism software. For STAT6 FP assay, A=≤300 nM; B=>300-3000 nM; C=>3-30 μM; and D=>30 μM.
(In general: Fluorescence polarisation rises when a labelled molecule tumbles more slowly, as on binding a larger partner.)

A value given as a limit tells only on which side of the number the result lay.

T1 sequence (P40763 127-722, species assumed): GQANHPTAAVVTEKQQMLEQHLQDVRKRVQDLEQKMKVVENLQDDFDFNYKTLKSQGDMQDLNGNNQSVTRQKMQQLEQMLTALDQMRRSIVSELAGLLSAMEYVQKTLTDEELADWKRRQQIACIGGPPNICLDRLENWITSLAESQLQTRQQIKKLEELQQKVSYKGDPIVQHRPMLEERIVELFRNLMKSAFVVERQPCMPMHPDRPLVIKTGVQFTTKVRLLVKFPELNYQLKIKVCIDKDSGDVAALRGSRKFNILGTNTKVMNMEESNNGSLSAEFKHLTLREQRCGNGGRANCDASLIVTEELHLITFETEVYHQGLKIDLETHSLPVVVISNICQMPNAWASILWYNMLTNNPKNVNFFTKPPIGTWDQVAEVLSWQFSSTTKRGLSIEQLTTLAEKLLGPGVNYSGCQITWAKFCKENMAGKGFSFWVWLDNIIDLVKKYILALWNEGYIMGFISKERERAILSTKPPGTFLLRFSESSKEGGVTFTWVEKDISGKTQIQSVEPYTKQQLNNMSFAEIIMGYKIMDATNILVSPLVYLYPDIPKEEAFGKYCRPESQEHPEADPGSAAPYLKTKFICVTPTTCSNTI

In the case of `O=C(N[C@H]1C[C@@H]2C[C@@H]2C[C@H]2CC[C@@H](C(=O)N3CC(Cc4cncnc4)C3)N2C1=O)c1cc2cc(CP(=O)(O)O)ccc2s1` [Example 364, ((2-(((3S,6S,7aS,8aR,9aR)-5-oxo-3-(3-(pyrimidin-5-ylmethyl)azetidine-1-carbonyl)decahydro-1H-cyclopropa[d]pyrrolo[1,2-a]azocin-6-yl)carbamoyl)benzo[b]thiophen-5-yl)methyl)phosphonic acid], the IC50 is 1000 to 10000 nM in test [1] and > 30 µM in test [2].

As for `COC[C@@H]1CCN1c1ccncc1C1CN(C(=O)[C@@H]2CC[C@@H]3C[C@H]4C[C@H]4C[C@H](NC(=O)c4cc5cc([C@H](F)P(=O)(O)O)ccc5s4)C(=O)N32)C1` (single isomer, unassigned) [Example 411], the IC50 in test [1] lay in the range of 100 to 1000 nM; in test [2], 0.3 to 3 µM.

For the compound `O=C(N[C@H]1C[C@@H]2C[C@@H]2C[C@H]2CC[C@@H](C(=O)N3CCN(C(=O)C4COC4)CC3)N2C1=O)c1cc2cc(C(F)(F)P(=O)(O)O)ccc2s1` [Compound 42, (difluoro(2-(((3S,6S,7aS,8aR,9aR)-3-(4-(oxetane-3-carbonyl)piperazine-1-carbonyl)-5-oxodecahydro-1H-cyclopropa[d]pyrrolo[12-a]azocin-6-yl)carbamoyl)benzo[b]thiophen-5-yl)methyl)phosphonic acid], the IC50 in test [1] was in the range of 100 to 1000 nM; in test [2], 0.3 to 3 µM.

Consider `Cn1cnnc1C1CN(C(=O)[C@@H]2CC[C@@H]3C[C@H]4C[C@H]4C[C@H](NC(=O)c4cc5cc(C(F)P(=O)(O)O)ccc5s4)C(=O)N32)C1` (stereo partly drawn) [Example 304, (fluoro(2-(((3S,6S,7aS,8aR,9aR)-3-(3-(4-methyl-4H-1,2,4-triazol-3-yl)azetidine-1-carbonyl)-5-oxodecahydro-1H-cyclopropa[d]pyrrolo[1,2-a]azocin-6-yl)carbamoyl)benzo[b]thiophen-5-yl)methyl)phosphonic acid], for which the IC50 was < 100 nM in test [1] and 3 to 30 µM in test [2].

`O=C(N[C@H]1C[C@@H]2C[C@@H]2C[C@H]2CC[C@@H](C(=O)N3CC(C(=O)N4CC[C@@H](O)C4)C3)N2C1=O)c1cc2cc(C(F)(F)P(=O)(O)O)ccc2s1` [Compound 109, (difluoro(2-(((3S,6S,7aS,8aR,9aR)-3-(3-((R)-3-hydroxypyrrolidine-1-carbonyl)azetidine-1-carbonyl)-5-oxodecahydro-1H-cyclopropa[d]pyrrolo[1,2-a]azocin-6-yl)carbamoyl)benzo[b]thiophen-5-yl)methyl)phosphonic acid]: the IC50 was < 100 nM in test [1] and 3 to 30 µM in test [2].

In the case of `Cc1cc(C2CN(C(=O)[C@@H]3CC[C@@H]4C[C@H]5C[C@H]5C[C@H](NC(=O)c5cc6cc(C(F)P(=O)(O)O)ccc6s5)C(=O)N43)C2)on1` (stereo partly drawn) [Example 328, (fluoro(2-(((3S,6S,7aS,8aR,9aR)-3-(3-(3-methylisoxazol-5-yl)azetidine-1-carbonyl)-5-oxodecahydro-1H-cyclopropa[d]pyrrolo[1,2-a]azocin-6-yl)carbamoyl)benzo[b]thiophen-5-yl)methyl)phosphonic acid], the IC50 in test [1] lay in the range of 100 to 1000 nM; in test [2], 3 to 30 µM.

Turning to `O=C(N[C@H]1C[C@@H]2C[C@@H]2C[C@H]2CC[C@@H](C(=O)N3CC4C3CCN4c3cccnc3)N2C1=O)c1cc2cc(C(F)(F)P(=O)(O)O)ccc2s1` (stereo partly drawn) [Example 274, (difluoro(2-(((3S,6S,7aS,8aR,9aR)-5-oxo-3-(2-(pyridin-3-yl)-2,6-diazabicyclo[3.2.0]heptane-6-carbonyl)decahydro-1H-cyclopropa[d]pyrrolo[1,2-a]azocin-6-yl)carbamoyl)benzo[b]thiophen-5-yl)methyl)phosphonic acid], the IC50 was < 100 nM in test [1] and 0.3 to 3 µM in test [2].

For the compound `O=C(N[C@H]1C[C@@H]2C[C@@H]2C[C@H]2CC[C@@H](C(=O)N3CC(N4CCS(=O)(=O)CC4)C3)N2C1=O)c1cc2cc(C(F)P(=O)(O)O)ccc2s1` (stereo partly drawn) [Example 301, ((2-(((3S,6S,7aS,8aR,9aR)-3-(3-(1,1-dioxidothiomorpholino)azetidine-1-carbonyl)-5-oxodecahydro-1H-cyclopropa[d]pyrrolo[1,2-a]azocin-6-yl)carbamoyl)benzo[b]thiophen-5-yl)fluoromethyl)phosphonic acid], the IC50 in test [1] is 100 to 1000 nM; in test [2], 3 to 30 µM.

In the case of `CC(=O)N1C[C@H](NC(=O)[C@@H]2CC[C@@H]3C[C@]4(C)C[C@@H]4C[C@H](NC(=O)c4cc5cc(CP(=O)(O)O)ccc5s4)C(=O)N32)[C@@H](F)C1` [Example 273, ((2-(((3S,6S,7aR,8aS,9aR)-3-(((3S,4S)-1-acetyl-4-fluoropyrrolidin-3-yl)carbamoyl)-8a-methyl-5-oxodecahydro-1H-cyclopropa[d]pyrrolo[1,2-a]azocin-6-yl)carbamoyl)benzo[b]thiophen-5-yl)methyl)phosphonic acid], the IC50 in test [1] lay within 1000 to 10000 nM; in test [2] it was 3 to 30 µM.

For `O=C(N[C@H]1C[C@@H]2C[C@@H]2C[C@H]2CC[C@@H](C(=O)N3CC(c4ncccn4)C3)N2C1=O)c1cc2cc(C(F)P(=O)(O)O)ccc2s1` (stereo partly drawn) [Example 305, (fluoro(2-(((3S,6S,7aS,8aR,9aR)-5-oxo-3-(3-(pyrimidin-2-yl)azetidine-1-carbonyl)decahydro-1H-cyclopropa[d]pyrrolo[1,2-a]azocin-6-yl)carbamoyl)benzo[b]thiophen-5-yl)methyl)phosphonic acid], the values for the IC50 in test [1] and in test [2] were 100 to 1000 nM and 3 to 30 µM, respectively.

Regarding `O=C(N[C@H]1C[C@@H]2C[C@@H]2C[C@H]2CC[C@@H](C(=O)Nc3ccc(-c4ccccc4)cc3)N2C1=O)c1cc2cc(C(F)(F)P(=O)(O)O)ccc2s1` [Compound 32, ((2-(((3S,6S,7aS,8aR,9aR)-3-([1,1′-biphenyl]-4-ylcarbamoyl)-5-oxodecahydro-1H-cyclopropa[d]pyrrolo[1,2-a]azocin-6-yl)carbamoyl)benzo[b]thiophen-5-yl)difluoromethyl)phosphonic acid], the figures for the IC50 in test [1] and in test [2] were < 100 nM and 0.3 to 3 µM, respectively.

Turning to `COC1(c2nccn2C)CN(C(=O)[C@@H]2CC[C@@H]3CC4(C)CC4C[C@H](NC(=O)c4cc5cc(C(F)(F)P(=O)(O)O)ccc5s4)C(=O)N32)C1` (stereo in doubt) [Example 239, (difluoro(2-(((3S,6S,7aR,8aS,9aR)-3-(3-methoxy-3-(1-methyl-1H-imidazol-2-yl)azetidine-1-carbonyl)-8a-methyl-5-oxodecahydro-1H-cyclopropa[d]pyrrolo[1,2-a]azocin-6-yl)carbamoyl)benzo[b]thiophen-5-yl)methyl)phosphonic acid], the concentration for half-maximal inhibition (IC50) is < 100 nM in test [1] and 3 to 30 µM in test [2].

In the case of `Cc1ccncc1C1CN(C(=O)[C@@H]2CC[C@@H]3C[C@@H]4C[C@@H]4C[C@H](NC(=O)c4cc5cc(C(F)P(=O)(O)O)ccc5s4)C(=O)N32)C1` (stereo partly drawn) [Example 320, (fluoro(2-(((3S,6S,7aR,8aS,9aR)-3-(3-(4-methylpyridin-3-yl)azetidine-1-carbonyl)-5-oxodecahydro-1H-cyclopropa[d]pyrrolo[1,2-a]azocin-6-yl)carbamoyl)benzo[b]thiophen-5-yl)methyl)phosphonic acid], the figures for the IC50 in test [1] and in test [2] were < 100 nM and 3 to 30 µM, respectively.

Turning to `Cc1nnc(C2CN(C(=O)[C@@H]3CC[C@@H]4C[C@@H]5C[C@@H]5C[C@H](NC(=O)c5cc6cc(C(F)(F)P(=O)(O)O)ccc6s5)C(=O)N43)C2)[nH]1` [Compound 81, (difluoro(2-(((3S,6S,7aR,8aS,9aR)-3-(3-(5-methyl-4H-1,2,4-triazol-3-yl)azetidine-1-carbonyl)-5-oxodecahydro-1H-cyclopropa[d]pyrrolo[1,2-a]azocin-6-yl)carbamoyl)benzo[b]thiophen-5-yl)methyl)phosphonic acid], the IC50 in test [1] was < 100 nM; in test [2], 0.3 to 3 µM.

The IC50 is the point on the concentration scale where inhibition reaches its midpoint.
